Here are results for 41 compounds from ChEMBL document CHEMBL1147781, “Design, synthesis and in vitro antimalarial activity of an acylhydrazone library” (Bioorg Med Chem Lett, 2006).

The structures appear in SMILES notation.

For orientation: inhibition means the change of the read-out against control, counted positive when it falls. Read a low inhibition as little suppression.

For the assay, the system named is Plasmodium falciparum. The experiment in a line: Growth inhibition of chloroquine-resistant Plasmodium falciparum FcB1 at 1 uM. Type of assay: functional.
Take `O=C(N/N=C/c1cc(Br)ccc1O)c1cccs1`: the inhibition at 1 µM was determined as 38%.
Then `COc1ccc(C(=O)N/N=C/c2cc(Br)ccc2O)cc1`, with 29%; and `CC(=O)N/N=C/c1cc(C(C)(C)C)ccc1O`, with 32%; and `Cc1ccc(O)c(/C=N/NC(=O)c2ccccc2)c1`, with 49%.
Then `O=C(N/N=C/c1ccccc1O)c1ccco1`, with 21%; and `COc1ccc(C(=O)N/N=C/c2cc(C)ccc2O)cc1`, with 28%; and `O=C(N/N=C/c1cc([N+](=O)[O-])ccc1O)c1ccco1`, with 16%.
Consider `O=C(N/N=C/c1cc([N+](=O)[O-])ccc1O)c1ccncc1`, for which the inhibition at 1 µM turned out to be 15%.
For `O=C(N/N=C/c1cc(Br)ccc1O)c1ccncc1` the value was 29%; for `O=C(N/N=C/c1cc([N+](=O)[O-])ccc1O)c1cccs1`, 21%.
Then `CC(C)(C)c1ccc(O)c(/C=N/NC(=O)c2ccc(O)cc2)c1`, with 31%; and `O=C(N/N=C/c1cc([N+](=O)[O-])ccc1O)c1cccnc1`, with 19%; and `O=C(N/N=C/c1cc(Br)ccc1O)c1ccc(O)cc1`, with 10%.
Then `CC(=O)N/N=C/c1cc([N+](=O)[O-])ccc1O`, with 22%; and `CC(C)(C)c1ccc(O)c(/C=N/NC(=O)c2cccnc2)c1`, with 32%.
For `Cc1ccc(O)c(/C=N/NC(=O)c2ccncc2)c1`, the inhibition at 1 µM worked out at 8%.
Regarding `Cc1ccc(O)c(/C=N/NC(=O)c2cccnc2)c1`, the inhibition at 1 µM turned out to be 33%.
Take `O=C(N/N=C/c1cc(Br)ccc1O)c1ccc(Cl)cc1`: the inhibition at 1 µM is 36%.
Regarding `Cc1ccc(O)c(/C=N/NC(=O)c2cccs2)c1`, testing at 1 µM gave an inhibition of 23%.
For `CC(=O)N/N=C/c1cc(C)ccc1O` the value was 32%.
`CC(=O)N/N=C/c1cc(Br)ccc1O`: the inhibition at 1 µM was found to be 17%.
With `CC(C)(C)c1ccc(C(=O)N/N=C/c2cc([N+](=O)[O-])ccc2O)cc1`, at 1 µM the inhibition was 36%.
For `COc1ccc(C(=O)N/N=C/c2cc([N+](=O)[O-])ccc2O)cc1` the value was 26%.
Then `Cc1ccc(O)c(/C=N/NC(=O)c2ccc(O)cc2)c1`, with 24%; and `O=C(N/N=C/c1cc(Br)ccc1O)c1cccnc1`, with 21%; and `O=C(N/N=C/c1cc([N+](=O)[O-])ccc1O)c1ccc([N+](=O)[O-])cc1`, with 31%.
For `Cc1ccc(O)c(/C=N/NC(=O)c2ccco2)c1` the value was 37%; for `Cc1ccc(O)c(/C=N/NC(=O)Cc2ccccc2)c1`, 19%; for `Cc1ccc(O)c(/C=N/NC(=O)c2ccc([N+](=O)[O-])cc2)c1`, 46%.
Take `CC(C)(C)c1ccc(O)c(/C=N/NC(=O)c2ccncc2)c1`: the inhibition at 1 µM worked out at 40%.
On to `O=C(N/N=C/c1cc([N+](=O)[O-])ccc1O)c1ccccc1`, for which at 1 µM the inhibition was 21%.
For `CC(C)(C)c1ccc(C(=O)N/N=C/c2cc(C(C)(C)C)ccc2O)cc1` the value was 48%; for `O=C(Cc1ccccc1)N/N=C/c1cc([N+](=O)[O-])ccc1O`, 0%; for `O=C(Cc1ccccc1)N/N=C/c1cc(Br)ccc1O`, 33%.
`O=C(N/N=C/c1cc([N+](=O)[O-])ccc1O)c1ccc(O)cc1` showed an inhibition at 1 µM of 4%.
For `CC(C)(C)c1ccc(O)c(/C=N/NC(=O)c2ccco2)c1` the value was 14%; for `O=C(N/N=C/c1cc([N+](=O)[O-])ccc1O)c1ccc(Cl)cc1`, 31%; for `CC(C)(C)c1ccc(O)c(/C=N/NC(=O)Cc2ccccc2)c1`, 14%.
In turn, `O=C(N/N=C/c1cc(Br)ccc1O)c1ccco1` displayed an inhibition at 1 µM of 35%.
Then `O=C(N/N=C/c1cc(Br)ccc1O)c1ccccc1`, with 47%.
Then `O=C(N/N=C/c1cc(Br)ccc1O)c1ccc([N+](=O)[O-])cc1`, with 17%.
